Values of other authors as cited in patent publication US4944949A, “Pharmaceutical delivery systems” (priority 1986, dated 1990).
Where two headings read alike, the source gives them in different places.

What was measured:
[1] = for faecal blood loss with oral prostaglandin E2: oral PGE2 1 mg three or four times daily given with the drug
[2] = in vivo
[3] = for most frequent adverse effects: in vivo
[4] = parts of drug dissolving in 10,000 parts of water

SMILES | solubility in organic solvents | absorption [2] | most frequent adverse effects [3] | also measured
CC(=O)Oc1ccccc1C(=O)O [Aspirin] | – | – | – | faecal blood loss with oral prostaglandin E2 [1]: reduced to control levels
O=C(O)Cc1ccccc1Nc1c(Cl)cccc1Cl [Diclofenac] | soluble in some organic solvents | fairly well absorbed | – | solubility in water (water): poorly soluble in water; Gastrointestinal disturbances / side effects reported ([3]; % of cases): about 7%
O=C(O)c1ccccc1Nc1cccc(C(F)(F)F)c1 [Flufenamic acid] | reasonably soluble in various organic solvents | well absorbed | gastrointestinal disturbances | solubility in water [4]: less than 1 part in 10,000 parts of water; bound to plasma proteins (plasma proteins): extensively bound to plasma proteins
CC(C(=O)O)c1ccc(-c2ccccc2)c(F)c1 (centres unmarked) [Flurbiprofen] | readily soluble in most organic solvents | readily absorbed | – | bound to plasma proteins (plasma proteins; plasma): approximately 99%
CC(C)Cc1ccc(C(C)C(=O)O)cc1 (centres unmarked) [Ibuprofen, ibuprofen] | fairly soluble in simple organic solvents | well absorbed | gastrointestinal | solubility in water [4]: less than 1 part in 10,000 parts of water; solubility in water (water): poorly soluble in water
COc1ccc2c(c1)c(CC(=O)O)c(C)n2C(=O)c1ccc(Cl)cc1 [Indomethacin] | more soluble in simple organic solvents | readily absorbed | gastrointestinal problems, headache and dizziness | parts of water in which drug is soluble (parts of water per part of drug): more than 10,000 parts of water; increase in faecal blood loss ([1]; compared with controls): ~3 fold; faecal blood loss with oral prostaglandin E2 [1]: reduced to control levels
CC(C(=O)O)c1cccc(C(=O)c2ccccc2)c1 (centres unmarked) [Ketoprofen] | – | – | gastrointestinal | –
COc1ccc2cc([C@H](C)C(=O)O)ccc2c1 [Naproxen] | – | – | gastrointestinal | –
CCCCC1C(=O)N(c2ccccc2)N(c2ccccc2)C1=O [Phenylbutazone] | – | readily absorbed | nausea, vomiting and epigastric distress | –
CN1C(C(=O)Nc2ccccn2)=C(O)c2ccccc2S1(=O)=O [Piroxicam] | soluble in some organic solvents | well absorbed | high incidence of severe gastrointestinal side effects | solubility in water (water): poorly soluble in water; bound to plasma proteins (plasma proteins; plasma): 99%
CC1=C(CC(=O)O)c2cc(F)ccc2/C1=C\c1ccc([S+](C)[O-])cc1 (centres unmarked) [Sulindac] | – | incompletely absorbed from the gastrointestinal tract | gastrointestinal, headache and dizziness | –
